Test results as given in patent publication US12501899B2, “Mite infestation treatment” (priority 2019, dated 2025).
Where a name gives a salt, the structure may show the parent alone. Read-outs that look alike come from different tables or passages of the source.

Key:
[1] = test system: Ixodes ricinus; test: Oral acaricidal test on ticks in membrane feeding wells with treated blood; format: in vivo; conditions: for mortality at 1 ppm / mortality at 10 ppm / mortality at 100 ppm: Ixodes ricinus, po
Description: A laboratory study was conducted to determine the oral acaricidal properties of three compounds according to the invention (SN0305, SN0306 and SN0307) against Ixodes ricinus. Each compound was tested at 1, 10 and 100 ppm, and compared to a negative control corresponding to solvent alone (0.1% DMSO). Amitraz at 100 ppm was used as a positive control.
The Ixodes ricinus ticks (nymphs and adults) were placed for 24 hours on a membrane in feeding wells containing blood mixed with the tested compounds. Tick mortality (number of dead, moribund, or unaffected ticks in each well), attachment to the membrane (number of ticks attached/detached in each well), and the behavior (presence or absence of twitches) were examined 1, 3, 6, 12, 24, 48, 72, and 96 hours after the onset of tick exposure to the compounds.
Ticks (Ixodes ricinus) were collected. Collected adult females were kept separate from the nymphs and both were placed in sterile tubes in a humidity chamber to provide ˜80% humidity and 17° C. Only healthy ticks (females/nymphs) were chosen for the experiment.
Batches of 12 adults or nymphs were inserted into the feeding wells. After about 24 hours, their attachment was examined with a brush.
The efficiency of three compounds (SN0305, SN0306 and SN0307), each tested at three concentrations (1, 10, 100 ppm), was compared to the solvent control (0.1% DMSO, Sigma-Aldrich D-5879; Lot 101K0028) and to the positive control (Amitraze at 100 ppm).
Silicone-coated membranes with a thickness comprised between 110 and 140 μm were used for the construction of the feeding units.
Feeding units (sterilized acrylic glass tubes) were placed in feeding wells made of sterilized six-well plates.
3.1 ml of sterile 10^−3 M ATP-enriched blood was applied to each feeding well. Feeding wells were then inserted into a heated water bath (FIG. 12) and maintained at 37° C.±2° C.
Stock solutions of 100,000 ppm were prepared and tenth dilutions were carried out in 0.1% DMSO to reach the desired concentrations. After tick attachment (24 hours after placing the ticks in the feeding wells), 3.1 μl of the solutions were added to each feeding well containing 3.1 ml of blood. Blood was changed after 12 hours with fresh supplementation of the compounds to be tested. The ticks were exposed to the product for a total of 24 hours, after which the blood was again changed to fresh, untreated blood.
Tick mortality (number of dead, moribund or unaffected ticks in each well), attachment (number of attached/detached ticks in each well) and behavior (presence, absence and intensity of convulsions) were examined 1, 3, 6, 12, 24, 48, 72, and 96 hours after the start of tick exposure to the compound.

[2] = test system: Varroa destructor; conditions: after 24 hours
Description: About 300 bees (Apis mellifera) infected with Varroa destructor were taken from a hive superinfected with Varroa destructor. The bees were then placed in a device allowing to detach Varroa mites attached to the bees (device described in Community model n° 003419415-0001) filled with icing sugar. The device was stirred for 2 minutes to sample the Varroa mites attached to the bees. The icing sugar allows to interfere between the bee and the Varroa mite that was attached thereto. Varroa mites were harvested with icing sugar because they pass through the holes in the device, unlike bees. The Varroa mites were then separated from the icing sugar.
The Varroa mites thus recovered were dispatched in boxes (10 Varroa mites per box).
The bees were then dispatched in the boxes (10 per box).
The bees were then put to sleep for a few minutes using CO2 (flow of 3 liters for 20 seconds) in order to deposit 1 μL of compound to be tested on their thorax using a pipette. It should be noted that the bees which received romifidine hydrochloride at a concentration of 10 μg/μL received 2 μL of product. The bees were unconscious for the time the compound to be tested was deposited, that is to say around three minutes, then they woke up.
After thoracic deposition of the compound to be tested, the 10 bees from the same box were transferred to a box containing the 10 Varroa mites (cf. “Preparation of Varroa mites” above). Liquid sugar was left in each of the boxes to feed the bees during the observations. The series of boxes was then placed in an oven at […] with a humidity of 50% in order to approximate hive conditions as closely as possible.
The mortality of Varroa mites and bees was then monitored 5 minutes, 2 hours, 4 hours and 24 hours after application of the compound to be tested to the bees. Dead Varroa mites correspond to Varroa mites detached from the bees. Dead bees correspond to bees which no longer move and which are often placed on their thorax.
The following compositions were applied to the thorax of the bees: • Solvent, • Amitraz at 1 μg/μL in acetone, • Clonidine hydrochloride at 100 μg/μL, 10 μg/μL, 1 μg/μL and 0.1 μg/μL in methanol, • Detomidine hydrochloride monohydrate at 1 μg/μL in methanol, • Dexmedetomidine hydrochloride at 100 μg/μL, 10 μg/μL, 1 μg/μL and 0.1 μg/μL in methanol, • Romifidine hydrochloride at 10 μg/μL and at 5 μg/μL in methanol, • Tizanidine hydrochloride at 1 μg/μL in methanol, • Medetomidine hydrochloride at 0.1 μg/μL in ethanol, • Levomedetomidine hydrochloride at 100 μg/μL, 10 μg/μL, 1 μg/μL and 0.1 μg/μL in methanol, • Octopamine at 1 μg/μL in ethanol. Results

`Cc1cccc([C@H](C)c2c[nH]cn2)c1C` [Dexmedetomidine hydrochloride, (S)-4-[1-(2,3-dimethylphenyl)-ethyl]-1H-imidazole] was tested, and the “effect in terms of tick detachment (in words)” value ([1]; 1, 10, 100 ppm, nymphs and adults) was “very limited effect”, the “detached nymphs in a replica” value ([1]; 1 ppm, nymphs) was 1 and the “detached adult ticks in a replica” value ([1]; 100 ppm, adult ticks) was 1. The mortality at 1 ppm ([1]; adult ticks, 1 ppm, 1 h, read-out: average percentage of adult tick mortality (moribund or dead adult ticks)) was 0%, the mortality at 1 ppm ([1]; adult ticks, 1 ppm, 3 h, read-out: average percentage of adult tick mortality (moribund or dead adult ticks)) was 0% and the mortality at 1 ppm ([1]; adult ticks, 1 ppm, 6 h, read-out: average percentage of adult tick mortality (moribund or dead adult ticks)) was 3.1%. The mortality at 1 ppm ([1]; adult ticks, 1 ppm, 12 h, read-out: average percentage of adult tick mortality (moribund or dead adult ticks)) was 3.1%, the mortality at 1 ppm ([1]; adult ticks, 1 ppm, 24 h, read-out: average percentage of adult tick mortality (moribund or dead adult ticks)) was 64.2% and the mortality at 1 ppm ([1]; adult ticks, 1 ppm, 48 h, read-out: average percentage of adult tick mortality (moribund or dead adult ticks)) was 88.2%. For the same compound, the mortality at 1 ppm ([1]; adult ticks, 1 ppm, 72 h, read-out: average percentage of adult tick mortality (moribund or dead adult ticks)) was 100%, the mortality at 1 ppm ([1]; adult ticks, 1 ppm, 96 h, read-out: average percentage of adult tick mortality (moribund or dead adult ticks)) was 100% and the mortality at 10 ppm ([1]; adult ticks, 1 h, read-out: average percentage of adult tick mortality (moribund or dead adult ticks)) was 0%. For the same compound, the mortality at 10 ppm ([1]; adult ticks, 3 h, read-out: average percentage of adult tick mortality (moribund or dead adult ticks)) was 0%, the mortality at 10 ppm ([1]; adult ticks, 6 h, read-out: average percentage of adult tick mortality (moribund or dead adult ticks)) was 5.6% and the mortality at 10 ppm ([1]; adult ticks, 12 h, read-out: average percentage of adult tick mortality (moribund or dead adult ticks)) was 11.1%. For the same compound, the mortality at 10 ppm ([1]; adult ticks, 24 h, read-out: average percentage of adult tick mortality (moribund or dead adult ticks)) was 57.3%, the mortality at 10 ppm ([1]; adult ticks, 48 h, read-out: average percentage of adult tick mortality (moribund or dead adult ticks)) was 79.5% and the mortality at 10 ppm ([1]; adult ticks, 72 h, read-out: average percentage of adult tick mortality (moribund or dead adult ticks)) was 96.9%. It also gave a mortality at 10 ppm ([1]; adult ticks, 96 h, read-out: average percentage of adult tick mortality (moribund or dead adult ticks)) of 100%, a mortality at 100 ppm ([1]; adult ticks, 100 ppm, 1 h, read-out: average percentage of adult tick mortality (moribund or dead adult ticks)) of 0% and a mortality at 100 ppm ([1]; adult ticks, 100 ppm, 3 h, read-out: average percentage of adult tick mortality (moribund or dead adult ticks)) of 0%. The mortality at 100 ppm ([1]; adult ticks, 100 ppm, 6 h, read-out: average percentage of adult tick mortality (moribund or dead adult ticks)) was 5.9%, the mortality at 100 ppm ([1]; adult ticks, 100 ppm, 12 h, read-out: average percentage of adult tick mortality (moribund or dead adult ticks)) was 11.8% and the mortality at 100 ppm ([1]; adult ticks, 100 ppm, 24 h, read-out: average percentage of adult tick mortality (moribund or dead adult ticks)) was 63.9%. For the same compound, the mortality at 100 ppm ([1]; adult ticks, 100 ppm, 48 h, read-out: average percentage of adult tick mortality (moribund or dead adult ticks)) was 76.4%, the mortality at 100 ppm ([1]; adult ticks, 100 ppm, 72 h, read-out: average percentage of adult tick mortality (moribund or dead adult ticks)) was 91.3% and the mortality at 100 ppm ([1]; adult ticks, 100 ppm, 96 h, read-out: average percentage of adult tick mortality (moribund or dead adult ticks)) was 100%. For the same compound, the mortality at 1 ppm ([1]; nymphs, 1 ppm, 1 h, read-out: average percentage of mortality of tick nymphs (moribund or dead nymphs)) was 0%, the mortality at 1 ppm ([1]; nymphs, 1 ppm, 3 h, read-out: average percentage of mortality of tick nymphs (moribund or dead nymphs)) was 0% and the mortality at 1 ppm ([1]; nymphs, 1 ppm, 6 h, read-out: average percentage of mortality of tick nymphs (moribund or dead nymphs)) was 13.8%. The mortality at 1 ppm ([1]; nymphs, 1 ppm, 12 h, read-out: average percentage of mortality of tick nymphs (moribund or dead nymphs)) was 31.3%, the mortality at 1 ppm ([1]; nymphs, 1 ppm, 24 h, read-out: average percentage of mortality of tick nymphs (moribund or dead nymphs)) was 58.9% and the mortality at 1 ppm ([1]; nymphs, 1 ppm, 48 h, read-out: average percentage of mortality of tick nymphs (moribund or dead nymphs)) was 85.7%. For the same compound, the mortality at 1 ppm ([1]; nymphs, 1 ppm, 72 h, read-out: average percentage of mortality of tick nymphs (moribund or dead nymphs)) was 100%, the mortality at 1 ppm ([1]; nymphs, 1 ppm, 96 h, read-out: average percentage of mortality of tick nymphs (moribund or dead nymphs)) was 100% and the mortality at 10 ppm ([1]; nymphs, 1 h, read-out: average percentage of mortality of tick nymphs (moribund or dead nymphs)) was 0%. The mortality at 10 ppm ([1]; nymphs, 3 h, read-out: average percentage of mortality of tick nymphs (moribund or dead nymphs)) was 9.2%, the mortality at 10 ppm ([1]; nymphs, 6 h, read-out: average percentage of mortality of tick nymphs (moribund or dead nymphs)) was 24.9% and the mortality at 10 ppm ([1]; nymphs, 12 h, read-out: average percentage of mortality of tick nymphs (moribund or dead nymphs)) was 48.3%. It also gave a mortality at 10 ppm ([1]; nymphs, 24 h, read-out: average percentage of mortality of tick nymphs (moribund or dead nymphs)) of 83%, a mortality at 10 ppm ([1]; nymphs, 48 h, read-out: average percentage of mortality of tick nymphs (moribund or dead nymphs)) of 96.9% and a mortality at 10 ppm ([1]; nymphs, 72 h, read-out: average percentage of mortality of tick nymphs (moribund or dead nymphs)) of 100%. For the same compound, the mortality at 10 ppm ([1]; nymphs, 96 h, read-out: average percentage of mortality of tick nymphs (moribund or dead nymphs)) was 100%, the mortality at 100 ppm ([1]; nymphs, 100 ppm, 1 h, read-out: average percentage of mortality of tick nymphs (moribund or dead nymphs)) was 0% and the mortality at 100 ppm ([1]; nymphs, 100 ppm, 3 h, read-out: average percentage of mortality of tick nymphs (moribund or dead nymphs)) was 13.3%. It also gave a mortality at 100 ppm ([1]; nymphs, 100 ppm, 6 h, read-out: average percentage of mortality of tick nymphs (moribund or dead nymphs)) of 33%, a mortality at 100 ppm ([1]; nymphs, 100 ppm, 12 h, read-out: average percentage of mortality of tick nymphs (moribund or dead nymphs)) of 59% and a mortality at 100 ppm ([1]; nymphs, 100 ppm, 24 h, read-out: average percentage of mortality of tick nymphs (moribund or dead nymphs)) of 92.9%. It also gave a mortality at 100 ppm ([1]; nymphs, 100 ppm, 48 h, read-out: average percentage of mortality of tick nymphs (moribund or dead nymphs)) of 100%, a mortality at 100 ppm ([1]; nymphs, 100 ppm, 72 h, read-out: average percentage of mortality of tick nymphs (moribund or dead nymphs)) of 100% and a mortality at 100 ppm ([1]; nymphs, 100 ppm, 96 h, read-out: average percentage of mortality of tick nymphs (moribund or dead nymphs)) of 100%. The “ticks affected (convulsion, morbidity or death of ticks)” value ([1]; from 1 hour of exposure, regardless of the concentration tested (1, 10, 100 ppm)) was 100%, the “mortality for Varroa mites” value ([2]; 0.1 μg/μL) was 100% and the “mortality for Varroa mites” value ([2]; 10 μg/μL) was 100%.
